PMC11062922 (Nature Chemical Biology, 2023)

How the values were obtained:
Test in all cases: Kinobeads competition binding profiling, two doses (100 nM and 1 µM);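 further: inhibitor preincubated 45 min at 4 °C in cell lysate, then bead pulldown. Bound protein quantified by label-free mass spectrometry relative to DMSO vehicle control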
[1] = target: T1, endogenous kinases and other proteins enriched by Kinobeads from mixed lysates of K-562, COLO-205, MV-4-11, SK-N-BE(2) and OVCAR-8 (Homo sapiens, UniProt Q08345); details: DDR1
T1 construct: endogenous in cells

[2] = target: T2, endogenous kinases and other proteins enriched by Kinobeads from mixed lysates of K-562, COLO-205, MV-4-11, SK-N-BE(2) and OVCAR-8 (Homo sapiens, UniProt P80192); details: MLK1
T2 construct: endogenous in cells

[3] = target: T3, endogenous kinases and other proteins enriched by Kinobeads from mixed lysates of K-562, COLO-205, MV-4-11, SK-N-BE(2) and OVCAR-8 (Homo sapiens, UniProt Q9Y463); details: DYRK1B
T3 construct: endogenous in cells

[4] = target: T4, endogenous kinases and other proteins enriched by Kinobeads from mixed lysates of K-562, COLO-205, MV-4-11, SK-N-BE(2) and OVCAR-8 (Homo sapiens, UniProt P54646); details: AMPK-alpha2
T4 construct: endogenous in cells

[5] = target: T5, endogenous kinases and other proteins enriched by Kinobeads from mixed lysates of K-562, COLO-205, MV-4-11, SK-N-BE(2) and OVCAR-8 (Homo sapiens, UniProt O60674); details: JAK2(JH1domain-catalytic)
T5 construct: endogenous in cells

[6] = target: T6, endogenous kinases and other proteins enriched by Kinobeads from mixed lysates of K-562, COLO-205, MV-4-11, SK-N-BE(2) and OVCAR-8 (Homo sapiens, UniProt Q13627); details: DYRK1A
T6 construct: endogenous in cells

[7] = target: T7, endogenous kinases and other proteins enriched by Kinobeads from mixed lysates of K-562, COLO-205, MV-4-11, SK-N-BE(2) and OVCAR-8 (Homo sapiens, UniProt Q12866); details: MERTK
T7 construct: endogenous in cells
T7 sequence (Q12866 21-999): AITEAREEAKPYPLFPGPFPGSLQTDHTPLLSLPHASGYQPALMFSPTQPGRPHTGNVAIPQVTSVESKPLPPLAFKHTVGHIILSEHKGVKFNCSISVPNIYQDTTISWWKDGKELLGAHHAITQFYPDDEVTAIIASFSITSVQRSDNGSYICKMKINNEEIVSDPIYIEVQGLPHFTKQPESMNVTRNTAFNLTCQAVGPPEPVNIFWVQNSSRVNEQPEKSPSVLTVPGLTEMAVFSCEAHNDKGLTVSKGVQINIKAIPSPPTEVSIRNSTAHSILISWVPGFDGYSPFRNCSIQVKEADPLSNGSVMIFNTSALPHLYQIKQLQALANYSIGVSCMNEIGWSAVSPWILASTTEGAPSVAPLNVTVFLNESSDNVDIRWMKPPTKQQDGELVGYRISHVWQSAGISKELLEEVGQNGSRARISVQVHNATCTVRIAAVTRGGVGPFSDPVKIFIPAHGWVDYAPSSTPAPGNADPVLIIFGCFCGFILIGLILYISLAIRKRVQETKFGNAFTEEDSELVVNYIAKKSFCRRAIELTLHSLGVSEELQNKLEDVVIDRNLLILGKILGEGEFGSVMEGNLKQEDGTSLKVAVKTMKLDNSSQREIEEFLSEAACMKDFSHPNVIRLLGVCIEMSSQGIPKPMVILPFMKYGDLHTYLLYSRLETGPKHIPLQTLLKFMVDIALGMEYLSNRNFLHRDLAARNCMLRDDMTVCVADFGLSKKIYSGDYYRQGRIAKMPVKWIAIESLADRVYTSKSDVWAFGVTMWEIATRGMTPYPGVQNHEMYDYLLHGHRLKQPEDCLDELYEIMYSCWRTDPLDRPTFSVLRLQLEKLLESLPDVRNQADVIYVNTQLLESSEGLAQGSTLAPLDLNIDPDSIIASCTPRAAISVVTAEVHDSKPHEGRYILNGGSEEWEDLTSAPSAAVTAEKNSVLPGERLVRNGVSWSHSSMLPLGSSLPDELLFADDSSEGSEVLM

[8] = target: T8, endogenous kinases and other proteins enriched by Kinobeads from mixed lysates of K-562, COLO-205, MV-4-11, SK-N-BE(2) and OVCAR-8 (Homo sapiens, UniProt Q13163); details: MEK5
T8 construct: endogenous in cells

[9] = target: T9, endogenous kinases and other proteins enriched by Kinobeads from mixed lysates of K-562, COLO-205, MV-4-11, SK-N-BE(2) and OVCAR-8 (Homo sapiens, UniProt Q8TD19); details: NEK9
T9 construct: endogenous in cells

[10] = target: T10, endogenous kinases and other proteins enriched by Kinobeads from mixed lysates of K-562, COLO-205, MV-4-11, SK-N-BE(2) and OVCAR-8 (Homo sapiens, UniProt Q16584); details: MLK3
T10 construct: endogenous in cells

[11] = target: T11, endogenous kinases and other proteins enriched by Kinobeads from mixed lysates of K-562, COLO-205, MV-4-11, SK-N-BE(2) and OVCAR-8 (Homo sapiens, UniProt Q9HC98); details: NEK6
T11 construct: endogenous in cells

[12] = target: T12, endogenous kinases and other proteins enriched by Kinobeads from mixed lysates of K-562, COLO-205, MV-4-11, SK-N-BE(2) and OVCAR-8 (Homo sapiens, UniProt P54762); details: EPHB1
T12 construct: endogenous in cells
T12 sequence (P54762 18-984): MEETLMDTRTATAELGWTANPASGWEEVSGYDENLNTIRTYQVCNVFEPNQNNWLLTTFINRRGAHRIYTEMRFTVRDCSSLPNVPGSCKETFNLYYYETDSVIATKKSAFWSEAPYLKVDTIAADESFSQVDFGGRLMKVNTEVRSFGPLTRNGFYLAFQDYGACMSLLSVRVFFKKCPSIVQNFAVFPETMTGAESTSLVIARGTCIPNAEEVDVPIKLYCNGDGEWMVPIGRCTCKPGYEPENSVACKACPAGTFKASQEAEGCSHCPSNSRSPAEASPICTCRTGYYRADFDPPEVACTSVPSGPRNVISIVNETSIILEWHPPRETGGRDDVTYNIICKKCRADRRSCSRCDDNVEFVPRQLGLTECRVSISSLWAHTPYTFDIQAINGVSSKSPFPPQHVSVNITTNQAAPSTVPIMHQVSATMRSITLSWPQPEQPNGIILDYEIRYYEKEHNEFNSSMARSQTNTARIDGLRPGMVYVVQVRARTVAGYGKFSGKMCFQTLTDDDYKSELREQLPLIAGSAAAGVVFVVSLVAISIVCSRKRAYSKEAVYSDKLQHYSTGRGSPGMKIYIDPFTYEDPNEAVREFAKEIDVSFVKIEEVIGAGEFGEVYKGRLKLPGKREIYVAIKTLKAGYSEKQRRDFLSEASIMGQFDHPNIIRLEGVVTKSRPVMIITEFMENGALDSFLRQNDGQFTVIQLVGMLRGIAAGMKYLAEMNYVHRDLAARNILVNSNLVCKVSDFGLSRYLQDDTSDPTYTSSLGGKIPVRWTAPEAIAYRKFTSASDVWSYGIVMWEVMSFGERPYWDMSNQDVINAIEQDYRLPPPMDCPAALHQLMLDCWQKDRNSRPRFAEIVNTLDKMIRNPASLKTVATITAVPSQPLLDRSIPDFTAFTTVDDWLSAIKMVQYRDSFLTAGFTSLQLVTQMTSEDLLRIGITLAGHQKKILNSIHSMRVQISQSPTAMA

[13] = target: T13, endogenous kinases and other proteins enriched by Kinobeads from mixed lysates of K-562, COLO-205, MV-4-11, SK-N-BE(2) and OVCAR-8 (Homo sapiens, UniProt P49759); details: CLK1
T13 construct: endogenous in cells
T13 sequence (P49759 whole entry): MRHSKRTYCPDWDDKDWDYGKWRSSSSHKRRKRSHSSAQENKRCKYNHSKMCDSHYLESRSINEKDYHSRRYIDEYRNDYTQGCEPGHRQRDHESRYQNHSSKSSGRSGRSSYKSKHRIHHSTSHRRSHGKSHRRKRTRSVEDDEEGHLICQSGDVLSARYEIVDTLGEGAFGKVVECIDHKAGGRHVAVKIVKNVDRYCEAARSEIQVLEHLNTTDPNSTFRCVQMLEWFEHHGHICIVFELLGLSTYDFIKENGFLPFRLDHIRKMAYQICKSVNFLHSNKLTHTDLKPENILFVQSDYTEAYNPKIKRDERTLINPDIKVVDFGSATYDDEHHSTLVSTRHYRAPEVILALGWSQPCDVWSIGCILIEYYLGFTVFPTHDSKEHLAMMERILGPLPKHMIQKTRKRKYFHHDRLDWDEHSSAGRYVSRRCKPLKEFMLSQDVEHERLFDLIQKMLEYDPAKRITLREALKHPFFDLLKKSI

[14] = target: T14, endogenous kinases and other proteins enriched by Kinobeads from mixed lysates of K-562, COLO-205, MV-4-11, SK-N-BE(2) and OVCAR-8 (Homo sapiens, UniProt Q13188); details: read-out: Lestaurtinib Drugmatrix value, Gene Name STK3; target STK3; one Lestaurtinib control experiment/replicate (R1-R3)
T14 construct: endogenous in cells
T14 sequence (Q13188 whole entry): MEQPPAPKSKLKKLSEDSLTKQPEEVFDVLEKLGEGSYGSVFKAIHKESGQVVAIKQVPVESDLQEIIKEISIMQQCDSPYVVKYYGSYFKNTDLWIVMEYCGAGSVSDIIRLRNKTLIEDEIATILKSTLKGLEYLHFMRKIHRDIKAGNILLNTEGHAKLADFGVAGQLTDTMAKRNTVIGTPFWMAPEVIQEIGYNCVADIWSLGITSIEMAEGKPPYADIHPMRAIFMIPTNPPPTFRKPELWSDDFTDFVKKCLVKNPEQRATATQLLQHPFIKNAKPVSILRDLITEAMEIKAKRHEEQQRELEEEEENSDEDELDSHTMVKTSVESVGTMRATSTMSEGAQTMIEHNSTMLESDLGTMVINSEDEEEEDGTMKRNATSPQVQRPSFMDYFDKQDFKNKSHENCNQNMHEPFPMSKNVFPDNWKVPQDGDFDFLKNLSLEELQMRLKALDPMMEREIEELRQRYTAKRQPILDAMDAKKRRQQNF

[15] = target: T15, endogenous kinases and other proteins enriched by Kinobeads from mixed lysates of K-562, COLO-205, MV-4-11, SK-N-BE(2) and OVCAR-8 (Homo sapiens, UniProt P07948); details: read-out: Lestaurtinib Drugmatrix value (apparent Kd), Gene Name LYN; target LYN; each column = one Lestaurtinib control run_replicate
T15 construct: endogenous in cells
T15 sequence (P07948 whole entry): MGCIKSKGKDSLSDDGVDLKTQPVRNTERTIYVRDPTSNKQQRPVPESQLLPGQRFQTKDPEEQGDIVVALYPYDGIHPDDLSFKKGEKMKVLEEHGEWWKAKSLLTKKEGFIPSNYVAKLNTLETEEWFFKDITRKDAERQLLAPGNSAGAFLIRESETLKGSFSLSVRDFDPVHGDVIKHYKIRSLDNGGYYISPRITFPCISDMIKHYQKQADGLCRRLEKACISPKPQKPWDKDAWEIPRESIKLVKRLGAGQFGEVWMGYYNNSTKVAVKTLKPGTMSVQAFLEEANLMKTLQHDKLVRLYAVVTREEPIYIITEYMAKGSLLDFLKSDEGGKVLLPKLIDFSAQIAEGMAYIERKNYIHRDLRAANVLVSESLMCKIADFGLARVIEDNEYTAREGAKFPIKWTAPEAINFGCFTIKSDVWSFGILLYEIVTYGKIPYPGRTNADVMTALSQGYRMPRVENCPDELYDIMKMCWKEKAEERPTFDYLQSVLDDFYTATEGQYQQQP

[16] = target: T16, endogenous kinases and other proteins enriched by Kinobeads from mixed lysates of K-562, COLO-205, MV-4-11, SK-N-BE(2) and OVCAR-8 (Homo sapiens, UniProt O43353); details: read-out: Lestaurtinib Drugmatrix value, Gene Name RIPK2; target RIPK2; one Lestaurtinib control experiment/replicate (R1-R3)
T16 construct: to maximize the representation of endogenous proteins; endogenous in cells
T16 sequence (O43353 whole entry): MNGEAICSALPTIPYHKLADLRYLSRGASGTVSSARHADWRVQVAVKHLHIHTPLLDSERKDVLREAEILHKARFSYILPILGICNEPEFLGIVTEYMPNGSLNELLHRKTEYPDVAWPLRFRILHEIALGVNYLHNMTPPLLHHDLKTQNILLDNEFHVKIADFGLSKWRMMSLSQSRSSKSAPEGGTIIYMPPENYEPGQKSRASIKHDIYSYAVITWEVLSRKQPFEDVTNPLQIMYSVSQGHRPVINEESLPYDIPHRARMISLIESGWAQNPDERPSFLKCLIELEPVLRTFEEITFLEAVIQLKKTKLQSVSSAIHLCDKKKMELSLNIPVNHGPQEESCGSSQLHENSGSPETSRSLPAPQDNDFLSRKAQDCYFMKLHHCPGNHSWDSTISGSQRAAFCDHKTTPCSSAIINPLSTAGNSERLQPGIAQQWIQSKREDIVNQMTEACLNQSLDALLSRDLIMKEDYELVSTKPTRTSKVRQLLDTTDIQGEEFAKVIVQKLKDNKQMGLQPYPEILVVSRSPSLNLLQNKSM

[17] = target: T17, endogenous kinases and other proteins enriched by Kinobeads from mixed lysates of K-562, COLO-205, MV-4-11, SK-N-BE(2) and OVCAR-8 (Homo sapiens, UniProt Q05397); details: read-out: Lestaurtinib Drugmatrix value, Gene Name PTK2
T17 construct: endogenous in cells
T17 sequence (Q05397 whole entry): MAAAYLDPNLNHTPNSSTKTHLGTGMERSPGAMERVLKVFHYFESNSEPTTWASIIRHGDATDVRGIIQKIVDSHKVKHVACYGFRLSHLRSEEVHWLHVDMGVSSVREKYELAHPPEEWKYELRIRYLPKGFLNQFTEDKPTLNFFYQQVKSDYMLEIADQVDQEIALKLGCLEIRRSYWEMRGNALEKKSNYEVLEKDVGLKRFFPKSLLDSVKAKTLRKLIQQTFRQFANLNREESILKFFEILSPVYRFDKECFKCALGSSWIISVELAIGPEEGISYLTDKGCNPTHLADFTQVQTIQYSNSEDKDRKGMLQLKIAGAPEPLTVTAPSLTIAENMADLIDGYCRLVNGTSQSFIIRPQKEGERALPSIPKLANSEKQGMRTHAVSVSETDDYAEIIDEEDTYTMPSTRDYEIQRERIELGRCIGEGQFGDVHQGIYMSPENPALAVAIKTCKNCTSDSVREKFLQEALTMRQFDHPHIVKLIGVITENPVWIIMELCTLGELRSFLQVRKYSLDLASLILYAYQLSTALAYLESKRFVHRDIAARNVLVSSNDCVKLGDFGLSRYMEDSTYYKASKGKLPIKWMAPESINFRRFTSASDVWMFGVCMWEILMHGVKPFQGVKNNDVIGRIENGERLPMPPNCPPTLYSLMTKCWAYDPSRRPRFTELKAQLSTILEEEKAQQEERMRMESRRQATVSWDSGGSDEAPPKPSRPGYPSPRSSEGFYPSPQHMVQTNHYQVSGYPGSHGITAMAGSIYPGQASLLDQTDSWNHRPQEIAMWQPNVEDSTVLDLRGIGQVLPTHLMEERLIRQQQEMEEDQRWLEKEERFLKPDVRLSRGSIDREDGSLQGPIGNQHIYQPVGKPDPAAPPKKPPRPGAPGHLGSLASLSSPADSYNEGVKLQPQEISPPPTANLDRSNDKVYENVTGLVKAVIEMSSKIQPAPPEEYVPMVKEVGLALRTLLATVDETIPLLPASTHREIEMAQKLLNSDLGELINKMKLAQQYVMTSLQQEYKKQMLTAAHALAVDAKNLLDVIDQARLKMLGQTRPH

[18] = target: T18, endogenous kinases and other proteins enriched by Kinobeads from mixed lysates of K-562, COLO-205, MV-4-11, SK-N-BE(2) and OVCAR-8 (Homo sapiens, UniProt Q8WZ42); details: read-out: Lestaurtinib Drugmatrix value, Gene Name TTN; target TTN; one Lestaurtinib control experiment/replicate (R1-R3)
T18 construct: endogenous in cells

[19] = target: T19, endogenous kinases and other proteins enriched by Kinobeads from mixed lysates of K-562, COLO-205, MV-4-11, SK-N-BE(2) and OVCAR-8 (Homo sapiens, UniProt Q13882); details: read-out: Lestaurtinib Drugmatrix value, Gene Name PTK6; target PTK6; one Lestaurtinib control experiment/replicate (R1-R3)
T19 construct: endogenous in cells

[20] = target: T20, endogenous kinases and other proteins enriched by Kinobeads from mixed lysates of K-562, COLO-205, MV-4-11, SK-N-BE(2) and OVCAR-8 (Homo sapiens, UniProt P42680); details: read-out: Lestaurtinib Drugmatrix value, Gene Name TEC; target TEC; one Lestaurtinib control experiment/replicate (R1-R3)
T20 construct: to maximize the representation of endogenous proteins; endogenous in cells

[21] = target: T21, endogenous kinases and other proteins enriched by Kinobeads from mixed lysates of K-562, COLO-205, MV-4-11, SK-N-BE(2) and OVCAR-8 (Homo sapiens, UniProt P42345); details: read-out: Lestaurtinib Drugmatrix value (apparent Kd), Gene Name MTOR; target MTOR; each column = one Lestaurtinib control run_replicate
T21 construct: endogenous in cells

COc1cc(Nc2ncc3c(C)nc(-c4cc5ccccc5[nH]4)n3n2)cc(OC)c1OC [GW869516X]
Kinobeads Data [1]: no target | Kinobeads Data [2]: no target | Kinobeads Data [3]: no target | Kinobeads Data [4]: no target | Kinobeads Data [5]: no target | Kinobeads Data [6]: no target | Kinobeads Data [7]: no target | Kinobeads Data [8]: no target | Kinobeads Data [9]: no target | Kinobeads Data [10]: no target | Kinobeads Data [11]: no target | Kinobeads Data [12]: no target | Kinobeads Data [13]: no target

C[C@]12O[C@H](C[C@]1(O)CO)n1c3ccccc3c3c4c(c5c6ccccc6n2c5c31)CNC4=O [Lestaurtinib]
potency estimated from few doses [14]: 39.1 nM | potency estimated from few doses [15]: 808 nM | potency estimated from few doses [16]: 810 nM | potency estimated from few doses [17]: 345 nM | potency estimated from few doses [18]: 737 nM | potency estimated from few doses [19]: 533 nM | potency estimated from few doses [20]: 895 nM | potency estimated from few doses [21]: 482 nM
